Measurements reported in the NIST ThermoML archive (doi:10.1007/s10765-007-0241-8).
± gives the expanded uncertainty stated by the source.

Details: Liquid; for thermal conductivity: Hot wire method; for mass density: Constant-volume piezometry

CCCCn1cc[n+](C)c1.F[P-](F)(F)(F)(F)F [1-butyl-3-methylimidazolium hexafluorophosphate]
Details | mass density, 100 kPa [kg/m3] | mass density, 10000 kPa [kg/m3] | mass density, 20000 kPa [kg/m3] | thermal conductivity, 0.1 kPa [W/m/K] | thermal conductivity, 10 kPa [W/m/K] | thermal conductivity, 20 kPa [W/m/K]
294.9 K | 1369 ± 13 | 1373 ± 13 | 1378 ± 14 | 0.145 ± 0.006 | 0.146 ± 0.006 | 0.148 ± 0.006
315 K | 1352 ± 13 | 1357 ± 13 | 1362 ± 13 | 0.145 ± 0.006 | 0.146 ± 0.006 | 0.147 ± 0.006
335.1 K | 1336 ± 13 | 1341 ± 13 | 1347 ± 13 | 0.144 ± 0.006 | 0.145 ± 0.006 | 0.147 ± 0.006

CCCCCCn1cc[n+](C)c1.F[P-](F)(F)(F)(F)F [1-hexyl-3-methylimidazolium hexafluorophosphate]
Details | mass density, 294.1 K [kg/m3] | mass density, 315.1 K [kg/m3] | mass density, 335.2 K [kg/m3] | thermal conductivity, 294.1 K [W/m/K] | thermal conductivity, 315.1 K [W/m/K] | thermal conductivity, 335.2 K [W/m/K]
100 kPa | 1294 ± 12 | 1278 ± 11 | 1262 ± 11 | 0.145 ± 0.006 | 0.145 ± 0.006 | 0.144 ± 0.006
10000 kPa | 1300 ± 12 | 1284 ± 12 | 1268 ± 11 | 0.147 ± 0.006 | 0.146 ± 0.006 | 0.146 ± 0.006
20000 kPa | 1306 ± 12 | 1290 ± 12 | 1274 ± 12 | 0.148 ± 0.006 | 0.148 ± 0.006 | 0.147 ± 0.006

CCCCCCCC[n+]1ccn(C)c1.F[P-](F)(F)(F)(F)F [1-octyl-3-methylimidazolium hexafluorophosphate]
Details | mass density, 295.1 K [kg/m3] | mass density, 315.1 K [kg/m3] | mass density, 335.2 K [kg/m3] | thermal conductivity, 295.1 K [W/m/K] | thermal conductivity, 315.1 K [W/m/K] | thermal conductivity, 335.2 K [W/m/K]
100 kPa | 1236 ± 11 | 1222 ± 10 | 1207 ± 10 | 0.145 ± 0.006 | 0.145 ± 0.006 | 0.144 ± 0.006
10000 kPa | 1243 ± 11 | 1228 ± 11 | 1213 ± 10 | 0.147 ± 0.006 | 0.146 ± 0.006 | 0.146 ± 0.006
20000 kPa | 1249 ± 11 | 1234 ± 11 | 1219 ± 11 | 0.147 ± 0.006 | 0.147 ± 0.006 | 0.147 ± 0.006

CCCCCCCC [octane]
100 kPa
Details | thermal conductivity [W/m/K]
294.5 K | 0.126 ± 0.005
314.7 K | 0.121 ± 0.005
334.8 K | 0.115 ± 0.005

Cc1ccccc1 [toluene]
thermal conductivity [W/m/K]
Details | 294.2 K | 314.1 K | 334.4 K
100 kPa | 0.132 ± 0.006 | 0.127 ± 0.005 | 0.122 ± 0.005
10000 kPa | 0.136 ± 0.006 | 0.131 ± 0.006 | 0.126 ± 0.005
20000 kPa | 0.139 ± 0.006 | 0.135 ± 0.006 | 0.129 ± 0.005
